Measurements: patent US8952024B2, “Herbicidal pyrimidone derivatives” (E I du Pont de Nemours and Company, priority 2009, dated 2015)

Legend:
Assay in all cases: Test B pre-/postemergence plant response
Type in all cases: in vivo
[1] = system: velvetleaf (Abutilon theophrasti)
Method in brief: (§1)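 Pre-em in loam/sand; post-em at 1–4 leaf (2–18 cm) in peat mix. Solvent + surfactant formulation. Greenhouse 13–15 d; visual % control vs untreated, 0–100.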

[2] = system: Italian ryegrass (Lolium multiflorum)
Method in brief: as §1

[3] = system: wheat (Triticum aestivum)
Method in brief: as §1

[4] = system: large crabgrass (Digitaria sanguinalis)
Method in brief: as §1

[5] = system: lambsquarters (Chenopodium album)
Method in brief: as §1

[6] = system: goosegrass (Eleusine indica)
Method in brief: as §1

[7] = system: woolly cupgrass (Eriochloa villosa)
Method in brief: as §1

[8] = system: Surinam grass (Brachiaria decumbens)
Method in brief: as §1

[9] = system: ragweed (common ragweed, Ambrosia elatior)
Method in brief: as §1

[10] = system: downy bromegrass (Bromus tectorum)
Method in brief: as §1

[11] = system: pigweed (Amaranthus retroflexus)
Method in brief: as §1

[12] = system: yellow nutsedge (Cyperus esculentus)
Method in brief: as §1

[13] = system: green foxtail (Setaria viridis)
Method in brief: as §1

[14] = 250 g ai/ha, Preemergence, 0 to 100 scale
[15] = Postemergence, 31 g ai/ha, scale 0 to 100 (0 no effect, 100 complete control)
[16] = Postemergence, 62 g ai/ha, scale 0 (no effect) to 100 (complete control), 13 to 15 days
[17] = Postemergence, 125 g ai/ha, visual rating after 13 to 15 days, scale 0 (no effect) to 100 (complete control)
[18] = Postemergence, 250 g ai/ha, scale 0 to 100
[19] = Preemergence, 31 g ai/ha, scale 0 to 100 (0 no effect, 100 complete control)
[20] = Preemergence, 62 g ai/ha, scale 0 to 100 (0 no effect, 100 complete control)
[21] = Preemergence, 125 g ai/ha, 0 to 100 scale

Cc1ccccc1-n1c(-c2ccccc2)ncc(C(=O)C2=C(O)CCCC2=O)c1=O [Compound 12]
Plant response rating, Velvetleaf [1, 14]: 100 | Plant response rating, Velvetleaf [1, 15]: 80 | Plant response rating, Velvetleaf [1, 16]: 85 | Plant response rating, Velvetleaf [1, 17]: 98 | Velvetleaf plant response rating [1, 18]: 100 | Plant response rating, Velvetleaf [1, 19]: 90 | Plant response rating, Velvetleaf [1, 20]: 100 | Velvetleaf plant response rating [1, 21]: 100 | Plant response rating, Ryegrass, Italian [2, 14]: 0 | Plant response rating, Ryegrass, Italian [2, 15]: 0 | Plant response rating, Ryegrass, Italian [2, 16]: 0 | Plant response rating, Ryegrass, Italian [2, 17]: 5 | Ryegrass, Italian plant response rating [2, 18]: 5 | Plant response rating, Ryegrass, Italian [2, 19]: 0 | Plant response rating, Ryegrass, Italian [2, 20]: 0 | Ryegrass, Italian plant response rating [2, 21]: 0 | Plant response rating, Wheat [3, 14]: 0 | Plant response rating, Wheat [3, 15]: 0 | Plant response rating, Wheat [3, 16]: 0 | Plant response rating, Wheat [3, 17]: 0 | Wheat plant response rating [3, 18]: 0 | Plant response rating, Wheat [3, 19]: 0 | Plant response rating, Wheat [3, 20]: 0 | Wheat plant response rating [3, 21]: 0 | Plant response rating, Crabgrass, Large [4, 14]: 100 | Plant response rating, Crabgrass, Large [4, 15]: 65 | Plant response rating, Crabgrass, Large [4, 16]: 75 | Plant response rating, Crabgrass, Large [4, 17]: 80 | Crabgrass, Large plant response rating [4, 18]: 90 | Plant response rating, Crabgrass, Large [4, 19]: 0 | Plant response rating, Crabgrass, Large [4, 20]: 90 | Crabgrass, Large plant response rating [4, 21]: 100 | Plant response rating, Lambsquarters [5, 14]: 100 | Plant response rating, Lambsquarters [5, 15]: 80 | Plant response rating, Lambsquarters [5, 16]: 85 | Plant response rating, Lambsquarters [5, 17]: 98 | Lambsquarters plant response rating [5, 18]: 98 | Plant response rating, Lambsquarters [5, 19]: 100 | Plant response rating, Lambsquarters [5, 20]: 100 | Lambsquarters plant response rating [5, 21]: 100 | Plant response rating, Goosegrass [6, 14]: 100 | Plant response rating, Goosegrass [6, 15]: 70 | Plant response rating, Goosegrass [6, 16]: 85 | Plant response rating, Goosegrass [6, 17]: 98 | Goosegrass plant response rating [6, 18]: 100 | Plant response rating, Goosegrass [6, 19]: 85 | Goosegrass plant response rating [6, 21]: 100 | Plant response rating, Cupgrass, Woolly [7, 14]: 85 | Plant response rating, Cupgrass, Woolly [7, 15]: 55 | Plant response rating, Cupgrass, Woolly [7, 16]: 60 | Plant response rating, Cupgrass, Woolly [7, 17]: 70 | Cupgrass, Woolly plant response rating [7, 18]: 80 | Plant response rating, Cupgrass, Woolly [7, 19]: 0 | Plant response rating, Cupgrass, Woolly [7, 20]: 10 | Cupgrass, Woolly plant response rating [7, 21]: 75 | Plant response rating, Surinam Grass [8, 14]: 100 | Plant response rating, Surinam Grass [8, 15]: 25 | Plant response rating, Surinam Grass [8, 16]: 55 | Plant response rating, Surinam Grass [8, 17]: 65 | Surinam Grass plant response rating [8, 18]: 85 | Plant response rating, Surinam Grass [8, 19]: 35 | Plant response rating, Surinam Grass [8, 20]: 60 | Surinam Grass plant response rating [8, 21]: 95 | Plant response rating, Ragweed [9, 14]: 100 | Plant response rating, Ragweed [9, 15]: 100 | Plant response rating, Ragweed [9, 16]: 100 | Plant response rating, Ragweed [9, 17]: 100 | Ragweed plant response rating [9, 18]: 100 | Plant response rating, Ragweed [9, 19]: 90 | Plant response rating, Ragweed [9, 20]: 98 | Ragweed plant response rating [9, 21]: 100 | Plant response rating, Bromegrass, Downy [10, 14]: 0 | Plant response rating, Bromegrass, Downy [10, 15]: 5 | Plant response rating, Bromegrass, Downy [10, 16]: 10 | Plant response rating, Bromegrass, Downy [10, 17]: 20 | Bromegrass, Downy plant response rating [10, 18]: 20 | Plant response rating, Bromegrass, Downy [10, 19]: 0 | Plant response rating, Bromegrass, Downy [10, 20]: 0 | Bromegrass, Downy plant response rating [10, 21]: 0 | Plant response rating, Pigweed [11, 14]: 100 | Plant response rating, Pigweed [11, 15]: 95 | Plant response rating, Pigweed [11, 16]: 95 | Plant response rating, Pigweed [11, 17]: 98 | Pigweed plant response rating [11, 18]: 100 | Plant response rating, Pigweed [11, 19]: 100 | Plant response rating, Pigweed [11, 20]: 100 | Pigweed plant response rating [11, 21]: 100 | Plant response rating, Nutsedge, Yellow [12, 14]: 90 | Plant response rating, Nutsedge, Yellow [12, 15]: 15 | Plant response rating, Nutsedge, Yellow [12, 16]: 55 | Plant response rating, Nutsedge, Yellow [12, 17]: 65 | Nutsedge, Yellow plant response rating [12, 18]: 80 | Plant response rating, Nutsedge, Yellow [12, 19]: 25 | Plant response rating, Nutsedge, Yellow [12, 20]: 60 | Nutsedge, Yellow plant response rating [12, 21]: 75 | Plant response rating, Foxtail, Green [13, 14]: 80 | Plant response rating, Foxtail, Green [13, 15]: 40 | Plant response rating, Foxtail, Green [13, 16]: 60 | Plant response rating, Foxtail, Green [13, 17]: 70 | Foxtail, Green plant response rating [13, 18]: 70 | Plant response rating, Foxtail, Green [13, 19]: 0 | Plant response rating, Foxtail, Green [13, 20]: 0 | Foxtail, Green plant response rating [13, 21]: 40
